Results on four compounds are retold here after BindingDB's records for doi:10.1021/jm990336n (Boehringer Ingelheim Pharmaceuticals, 2000).

Some results are limits rather than exact numbers.

A word on the IC50: it is the midpoint of a concentration-inhibition curve. Low values mean greater potency, high ones weaker potency.

This test deals with T1, Dimer of Gag-Pol polyprotein [489-587] (Human immunodeficiency virus 1, UniProt P12497).
T1 construct: 489-587
In words: Protease Inhibition Assay. Conditions: pH 5.5; 37 °C. On the procedure:
Sensitivity of HIV-1 protease activity to protease inhibitors was determined by a peptide substrate cleavage assay. Cleavage products and substrate were separated by reversed-phase HPLC on a Perkin-Elmer 3 X 3CR C8 column.
`CC(C)CN(C[C@@H](O)[C@H](Cc1ccccc1)NC(=O)O[C@H]1CCOC1)S(=O)(=O)c1ccc(N)cc1` [VX-478] had a concentration for half-maximal inhibition (IC50) of 2.6 nM. Under `CC(C)(C)NC(=O)[C@@H]1C[C@H](OCc2ccncc2)CCN1C[C@@H](O)[C@H](Cc1ccccc1)NC(=O)O[C@H]1CCOC1` [(3S)-oxolan-3-yl N-[(2S,3R)-4-[(2S,4R)-2-(tert-butylcarbamoyl)-4-(pyridin-4-ylmethoxy)piperidin-1-yl]-3-hydroxy-1-phenylbutan-2-yl]carbamate] stands 260 nM; under `CC(C)[C@H](NC(=O)c1ccc2ccccc2n1)C(=O)N[C@@H](Cc1ccccc1)[C@H](O)CN1CC[C@@H](OCc2ccncc2)C[C@H]1C(=O)NC(C)(C)C`, 4 nM; under `CC(C)(C)NC(=O)[C@@H]1C[C@H](OCc2ccncc2)CCN1C[C@@H](O)[C@H](Cc1ccccc1)NC(=O)CCCc1ccccc1` [(2S,4R)-N-tert-butyl-1-[(2R,3S)-2-hydroxy-4-phenyl-3-(4-phenylbutanamido)butyl]-4-(pyridin-4-ylmethoxy)piperidine-2-carboxamide], > 20000 nM.
